Read-outs that look alike come from different tables or passages of the source.
Legend:
[1] = target: T1, BTK-WT (Homo sapiens, UniProt Q06187); experiment: Btk in vitro inhibitory activity (one of Method A TR-FRET, Method B electrophoretic mobility shift, Method C radiometric filter binding); assay type: biochemical; conditions: read-out: IC50 BTK-WT
T1 construct: purified from insect cells as a full-length construct containing an N-terminal 6X-His tag; His6 (N); made in house; host or cells: insect cells (baculovirus Sf21 in Method B)
T1 sequence (Q06187 whole entry): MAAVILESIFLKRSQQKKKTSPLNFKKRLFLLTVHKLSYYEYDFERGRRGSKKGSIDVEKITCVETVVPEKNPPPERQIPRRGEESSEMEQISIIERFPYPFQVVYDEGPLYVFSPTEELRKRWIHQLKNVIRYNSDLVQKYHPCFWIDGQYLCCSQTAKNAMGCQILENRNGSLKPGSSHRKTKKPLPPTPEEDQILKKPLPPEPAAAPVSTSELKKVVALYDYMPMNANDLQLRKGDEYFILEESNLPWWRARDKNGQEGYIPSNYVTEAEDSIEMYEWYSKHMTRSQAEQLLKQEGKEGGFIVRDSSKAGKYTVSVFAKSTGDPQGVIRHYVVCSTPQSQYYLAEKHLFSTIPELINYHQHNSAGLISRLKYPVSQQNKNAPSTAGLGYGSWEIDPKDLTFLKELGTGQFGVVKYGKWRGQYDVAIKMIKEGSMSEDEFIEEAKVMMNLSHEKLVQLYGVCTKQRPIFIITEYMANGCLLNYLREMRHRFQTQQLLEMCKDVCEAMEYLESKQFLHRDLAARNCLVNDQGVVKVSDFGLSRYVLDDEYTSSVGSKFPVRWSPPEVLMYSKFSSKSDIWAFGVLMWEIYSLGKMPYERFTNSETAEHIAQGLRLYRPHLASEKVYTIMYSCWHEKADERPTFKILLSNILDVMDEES
Protocol: Btk kinase activity is determined using a time-resolved fluorescence resonance energy transfer (TR-FRET) methodology. Measurements are performed in a reaction volume of 50 μL using 96-well assay plates. […] The reaction is quenched by the addition of 1.2 equivalents of EDTA (relative to divalent cation) in 25 μL of 1× Lance buffer (Perkin-Elmer). […] The TR-FRET signal is measured on a multimode plate reader with an excitation wavelength (λEx) of 330 nm and detection wavelengths (λEm) of 615 and 665 nm. Activity is determined by the ratio of the fluorescence at 665 nm to that at 615 nm. For each compound, enzyme activity is measured at various concentrations of compound. Negative control reactions are performed in the absence of inhibitor in replicates of six, and two no-enzyme controls are used to determine baseline fluorescence levels. Inhibition constants, Ki(app), were obtained using the program BatchKi(Kuzmic et al. (2000), Anal. Biochem. 286:45-50). IC50s are obtained according to the equation:
IC50={Ki(app)/(1+[ATP]/Km^ATP)}+[E]total/2;
Kinase activity is measured in vitro using electrophoretic mobility shift assay. The kinase reactions are assembled in a total volume of 25 μL in 384 well plates. […] The reaction is incubated for one hour and is quenched by the addition of 45 μL of termination buffer (100 mM HEPES, pH7.5, 0.01% Triton X-100, 30 mM EDTA). The terminated reactions are analyzed using 12 channel LabChip® 3000 microfluidic detection instrument (Caliper Life Sciences). […] Change in the relative fluorescence intensity of the substrate and product peaks is the parameter measured, reflecting enzyme activity. In the presence of an inhibitor, the ratio between product and substrate is altered: the signal of the product decreases, while the signal of the substrate increases.
Activity in each sample is determined as the product to sum ratio (PSR): P/(S+P), where P is the peak height of the product peptide and S is the peak height of the substrate peptide. For each compound, enzyme activity is measured at various concentrations (12 concentrations of compound spaced by 3× dilution intervals). Negative control samples (0%-inhibition in the absence of inhibitor) and positive control samples (100%-inhibition, in the presence of 20 mM EDTA) are assembled in replicates of four and are used to calculate %-inhibition values for each inhibitor at each concentration. Percent inhibition (Pinh) is determined using following equation:
Pinh=(PSR0%-PSRinh)/(PSR0%−PSR100%)*100, where PSRinh is the product sum ratio in the presence of inhibitor, PSR0% is the average product sum ration in the absence of inhibitor and PSR100% is the average product sum ratio in 100%-inhibition control samples;
The IC50 values of inhibitors are determined by 4 parameter sigmoidal dose-response model fitting of the inhibition curves (Pinh versus inhibitor concentration) using XLfit 4 software.
Human Btk kinase (Genbank accession # NP_000052) was purified from insect cells as a full-length construct containing an N-terminal 6X-His tag. Btk kinase activity was determined using a radiometric filter binding assay. Measurements are performed in a low μL reaction volume 384-well assay plates. […] IC50 values and curve fits were obtained using Prism (GraphPad Software).

[2] = target: T2, ITK (Homo sapiens, UniProt Q08881); experiment: Inhibition of a panel of kinases, in vitro HotSpot kinase assay: ITK; assay type: biochemical; conditions: 1 μM ATP
T2 sequence (Q08881 1-620): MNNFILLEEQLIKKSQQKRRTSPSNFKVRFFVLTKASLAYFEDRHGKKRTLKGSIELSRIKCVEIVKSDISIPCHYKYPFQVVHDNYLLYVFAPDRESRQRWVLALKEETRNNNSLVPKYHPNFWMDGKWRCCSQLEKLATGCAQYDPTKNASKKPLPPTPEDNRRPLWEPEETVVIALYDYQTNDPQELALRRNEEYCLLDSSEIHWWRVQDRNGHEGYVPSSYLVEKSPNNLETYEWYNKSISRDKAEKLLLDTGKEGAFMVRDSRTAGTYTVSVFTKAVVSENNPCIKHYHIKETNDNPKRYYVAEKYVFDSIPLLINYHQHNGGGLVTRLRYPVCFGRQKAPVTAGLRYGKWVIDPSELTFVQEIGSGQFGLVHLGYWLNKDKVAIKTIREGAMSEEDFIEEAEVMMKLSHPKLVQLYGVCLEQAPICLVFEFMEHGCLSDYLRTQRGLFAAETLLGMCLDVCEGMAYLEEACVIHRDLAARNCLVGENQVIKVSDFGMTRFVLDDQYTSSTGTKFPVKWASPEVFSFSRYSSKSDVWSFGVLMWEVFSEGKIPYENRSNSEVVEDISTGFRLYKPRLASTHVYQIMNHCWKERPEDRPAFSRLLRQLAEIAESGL
Protocol: The degree of inhibition of a panel of kinases is determined using the in vitro HotSpot kinase assay (purified enzymes, ^33P-ATP, an appropriate substrate and 1 μM ATP).

Structure (SMILES) | IC50 ([1]; Table 15, C compounds) | IC50 ([2]; Table 15, C compounds) | IC50 ([1]; Table 13, A compounds) | IC50 ([2]; Table 13, A compounds)
C=CC(=O)N1CCC[C@@H](Nc2nnc(C(N)=O)c(Nc3ccc(C(C)C)cc3)n2)[C@@H]1C (racemic) [Example C-33, 3-((2S,3R)-1-acryloyl-2-methylpiperidin-3-ylamino)-5-(4-isopropylphenylamino)-1,2,4-triazine-6-carboxamide] | ≤ 10 nM | 10 to 100 nM | – | –
C=CC(=O)N[C@@H]1CCCN(c2nnc(C(N)=O)c(Nc3ccc(C(C)C)cc3)n2)C1 [Example A-94, (R)-3-(3-acrylamido-piperidin-1-yl)-5-(4-isopropylphenylamino)-1,2,4-triazine-6-carboxamide] | – | – | 10 to 100 nM | 100 to 1000 nM
C=CC(=O)N[C@H]1CCCN(c2nnc(C(N)=O)c(Nc3ccc(C(C)C)cc3)n2)C1 [Example A-95, (S)-3-(3-acrylamido-piperidin-1-yl)-5-(4-isopropylphenylamino)-1,2,4-triazine-6-carboxamide] | – | – | 10 to 100 nM | 100 to 1000 nM
C=CC(=O)N1CCC[C@H](Nc2nnc(C(N)=O)c(Nc3ccc(-c4ncco4)cc3)n2)C1 [Example C-34, (S)-3-(1-acryloylpiperidin-3-ylamino)-5-(4-(oxazol-2-yl)phenylamino)-1,2,4-triazine-6-carboxamide] | ≤ 10 nM | 10 to 100 nM | – | –
C=CC(=O)N1CCCC[C@H](Nc2nnc(C(N)=O)c(Nc3ccc(C(C)C)cc3)n2)C1 [Example C-35, (S)-3-(1-acryloylazepan-3-ylamino)-5-(4-isopropylphenylamino)-1,2,4-triazine-6-carboxamide] | ≤ 10 nM | 100 to 1000 nM | – | –
C=CC(=O)N1CCC[C@H](Nc2cnc(C(N)=O)c(Nc3ccc(-c4ncccn4)cc3)n2)C1 [Example C-36, (S)-5-(1-acryloylpiperidin-3-ylamino)-3-(4-(pyrimidin-2-yl)phenylamino) pyrazine-2-carboxamide] | ≤ 10 nM | 100 to 1000 nM | – | –
C=CC(=O)N1CCC[C@H](Nc2cnc(C(N)=O)c(Nc3ccc(C(C)C)cc3)n2)C1 [Example C-37, (S)-5-(1-acryloylpiperidin-3-ylamino)-3-(4-isopropylphenylamino) pyrazine-2-carboxamide] | ≤ 10 nM | 100 to 1000 nM | – | –
C=CC(=O)N1CCCC[C@@H](Nc2nnc(C(N)=O)c(Nc3ccc(C(C)C)cc3)n2)C1 [Example C-38, (R)-3-(1-acryloylazepan-3-ylamino)-5-(4-isopropylphenylamino)-1,2,4-triazine-6-carboxamide] | ≤ 10 nM | ≤ 10 nM | – | –
C=CC(=O)N1CCC[C@H](Nc2nnc(C(N)=O)c(Nc3ccc(C(C)(C)C)cc3)n2)C1 [Example C-39, (S)-3-(1-acryloylpiperidin-3-ylamino)-5-(4-tert-butylphenylamino)-1,2,4-triazine-6-carboxamide] | ≤ 10 nM | 10 to 100 nM | – | –
C=CC(=O)N1CCC[C@H](N(C)c2nnc(C(N)=O)c(Nc3ccc(C(C)C)cc3)n2)C1 [Example C-43, (S)-3-((1-acryloylpiperidin-3-yl)(methyl)amino)-5-(4-isopropylphenylamino)-1,2,4-triazine-6-carboxamide] | ≤ 10 nM | 10 to 100 nM | – | –
C=CC(=O)N1CCC(C)(c2ccc(Nc3nc(N[C@@H]4CCCN(C(=O)C=C)C4)nnc3C(N)=O)cc2)CC1 [Example C-45, (R)-5-(4-(1-acryloyl-4-methylpiperidin-4-yl)phenylamino)-3-(1-acryloylpiperidin-3-ylamino)-1,2,4-triazine-6-carboxamide] | ≤ 10 nM | ≤ 10 nM | – | –
CCC(=O)N1CCC[C@@H](Nc2nnc(C(N)=O)c(Nc3ccc(C(C)(C)C)cc3)n2)C1 [Example C-46, (R)-5-(4-tert-butylphenylamino)-3-(1-propionylpiperidin-3-ylamino)-1,2,4-triazine-6-carboxamide] | ≤ 10 nM | 100 to 1000 nM | – | –
C=CC(=O)N1CCC[C@@H](Nc2nnc(C(N)=O)c(Nc3ccc(C4CC4)cc3)n2)C1 [Example C-47, (R)-3-(1-acryloylpiperidin-3-ylamino)-5-(4-cyclopropylphenyl-amino)-1,2,4-triazine-6-carboxamide] | ≤ 10 nM | 10 to 100 nM | – | –
C=CC(=O)N1CCC[C@@H](Nc2nnc(C(N)=O)c(Nc3ccc(C4(C#N)CC4)cc3)n2)C1 [Example C-48, (R)-3-(1-acryloylpiperidin-3-ylamino)-5-(4-(1-cyanocyclopropyl)phenylamino)-1,2,4-triazine-6-carboxamide] | ≤ 10 nM | ≤ 10 nM | – | –
C=CC(=O)N1CCC[C@@H](N(C(=O)C=C)c2nnc(C(N)=O)c(Nc3ccc(C4CC4)cc3)n2)C1 [Example C-49, (R)-3-(N-(1-acryloylpiperidin-3-yl)acrylamido)-5-(4-cyclopropylphenyl-amino)-1,2,4-triazine-6-carboxamide] | ≤ 10 nM | 1000 to 10000 nM | – | –
C=CC(=O)N1CCC[C@@H](N(C(=O)C=C)c2nnc(C(N)=O)c(Nc3ccc(C4(C#N)CC4)cc3)n2)C1 [Example C-50, (R)-3-(N-(1-acryloylpiperidin-3-yl)acrylamido)-5-(4-(1-cyanocyclopropyl)phenylamino)-1,2,4-triazine-6-carboxamide] | ≤ 10 nM | 100 to 1000 nM | – | –
C=CC(=O)N1CCC[C@@H](Nc2nnc(C(N)=O)c(Nc3cccc(C)c3)n2)C1 [Example C-55, (R)-3-(1-acryloylpiperidin-3-ylamino)-5-(m-tolylamino)-1,2,4-triazine-6-carboxamide] | ≤ 10 nM | 10 to 100 nM | – | –
CN(c1cnc(C(N)=O)c(Nc2ccc(C3(C)CCN(C4CC4)CC3)cc2)n1)[C@@H]1CCN(C(=O)C(F)(F)F)C1 [Example C-66, (R)-3-(4-(1-cyclopropyl-4-methylpiperidin-4-yl)phenylamino)-5-(methyl(1-(2,2,2-trifluoroacetyl)pyrrolidin-3-yl)amino)pyrazine-2-carboxamide] | ≤ 10 nM | ≤ 10 nM | – | –
CN(c1cnc(C(N)=O)c(Nc2ccc(C3(C)CCN(C4CCCC4)CC3)cc2)n1)[C@@H]1CCN(C(=O)C(F)(F)F)C1 [Example C-68, (R)-3-(4-(1-cyclopentyl-4-methylpiperidin-4-yl)phenylamino)-5-(methyl(1-(2,2,2-trifluoroacetyl)pyrrolidin-3-yl)amino)pyrazine-2-carboxamide] | ≤ 10 nM | ≤ 10 nM | – | –
C=CC(=O)N1CCC[C@@H](Nc2nnc(C(N)=O)c(Nc3ccc(CN[C@@H](C)C(C)(C)C)cc3)n2)C1 [Example C-73, 3-((R)-1-acryloylpiperidin-3-ylamino)-5-(4-(((S)-3,3-dimethylbutan-2-ylamino)methyl)phenyl-amino)-1,2,4-triazine-6-carboxamide] | ≤ 10 nM | ≤ 10 nM | – | –
C=CC(=O)N1CCC[C@@H](Nc2nnc(C(N)=O)c(Nc3ccc(-c4cnn(C(=O)C=C)c4)cc3)n2)C1 [Example C-74] | ≤ 10 nM | 10 to 100 nM | – | –

Reference: US20210070748A1, “INHIBITORS OF BRUTONS TYROSINE KINASE” (Pharmacyclics LLC, priority 2015, published 2021)
